For 14 compounds, TGI and GI50 results are on record in PubChem BioAssay (NCI).

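Interpolation was linear, between the two tested concentrations surrounding the appropriate level; five concentrations were tested over 48 hours in 96-well plates. GI50 marks 50% less growth. Definition used: TGI = concentration required for complete inhibition of growth.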 Where only a bound is given, the exact number is not on record here.

Assay in all cases: NCI tumour cell line growth inhibition, 48 h
In assay [1] the test system is KM12 colon.
For assay [2], the system named is NCI-H522 lung.
In assay [3] the test system is OVCAR-4 ovarian.
Assay [4] has as its system HCT-116 colon.
For assay [5], the system named is SNB-75 CNS.
For assay [6], the system named is OVCAR-8 ovarian.
Assay [7] has as its system HT29 colon.
Assay [8] concerns CCRF-CEM leukemia.
Assay [9] has as its system K-562 leukemia.
Assay [10] has as its system OVCAR-5 ovarian.

Regarding `O=c1c(-c2ccc(O)cc2)coc2cc(OC3OC(CO)C(O)C(O)C3O)cc(O)c12` (stereo not given), the TGI in [1], in assay [2], in [3], in [4], in assay [5] and in assay [6] was over 100 µM in each case. Further, the TGI in assay [7], in assay [8], in [9] and in assay [10] was over 100 µM in each case. The GI50 is over 100 µM in assay [3]; over 10 µM in assay [5]; over 10 µM in [8]; over 100 µM in assay [9]; over 100 µM in assay [10].

In the case of `Cc1cn2c(/C=C3/C(=O)Nc4ccc(F)cc43)c(C)nc2s1`, the GI50 in assay [1] was 2.34 µM; in assay [2], 3.22 µM; in assay [3], 12.6 µM; in [4] it was 2.92 µM; in [5], 3.76 µM; in assay [6], 10.4 µM. Also, the GI50 is 1.68 µM in assay [7], 14.8 µM in assay [8], 1.72 µM in [9] and 14.6 µM in assay [10]. For the same compound, the TGI is over 50 µM in [1]; 18.7 µM in [2]; over 50 µM in [3]; over 50 µM in assay [4]; 15.6 µM in assay [5]; over 50 µM in assay [6]. The TGI in assay [7] is 14.9 µM; in assay [8], over 50 µM; in assay [9] it was over 50 µM; in [10], over 50 µM.

With `O=C(Nc1nc(-c2ccc(Cl)cc2)nc2c1sc(=S)n2-c1ccccc1)C(F)(F)F`, the GI50 in assay [1] is 4.89 µM; in assay [2], 4.72 µM; in assay [3], 1.95 µM; in assay [4], 2.63 µM; in assay [5], 1.68 µM; in [6], 4.21 µM. Moreover, the GI50 in assay [7] was 3.73 µM; in assay [8], over 100 µM; in [9], 6.37 µM; in assay [10], 6.23 µM. Moreover, the TGI in assay [1] is over 100 µM; in [2] it was 39.8 µM; in [3], 4.19 µM; in assay [4] it was 8.04 µM; in [5] it was 3.49 µM; in assay [6], 21.1 µM. Moreover, the TGI in [7] is over 100 µM; in assay [8] it was over 100 µM; in [9], over 100 µM; in assay [10] it was 26.6 µM.

For `O=C(NNC(=S)Nc1ccccc1)c1ccccn1`, the GI50 in [1] is 3.9 µM; in assay [2], 5.99 µM; in [3], 1.46 µM; in [4] it was 3.02 µM; in assay [5] it was 5.97 µM; in [6], 2.69 µM. The GI50 in [7] was 4.17 µM; in assay [8], 2.18 µM; in assay [9], 3.95 µM; in [10], over 100 µM. The TGI in [1], in [2], in [3], in assay [4], in [5] and in assay [6] was over 100 µM in each case. Further, the TGI in assay [7] was over 100 µM; in assay [8], 25.3 µM; in [9] it was over 100 µM; in assay [10], over 100 µM.

On to `Nc1nc(N)c(N=Nc2ccc(C(=O)O)c(O)c2)c(N)n1`, for which the TGI in assay [1] is over 100 µM; in assay [2], over 100 µM; in assay [3], 35.1 µM; in assay [4] it was over 100 µM; in assay [5] it was over 100 µM; in [6], over 100 µM. The TGI in assay [7], in assay [8], in [9] and in assay [10] was over 100 µM in each case.

In the case of `CC[C@@H](C)Nc1cc(C(=O)NC2CC3CCC(C2)N3c2ccc(C(=O)C3CC3)cn2)c(C)cc1C(N)=O` (stereo not given in full), the GI50 in assay [1] was 0.0239 µM; in [2], 0.0451 µM; in [3], 1.31 µM; in assay [4] it was 0.03 µM; in assay [5], 0.192 µM; in assay [6] it was 0.047 µM. In addition, the GI50 in assay [7] is 0.0111 µM; in [8], 0.0482 µM; in assay [9], 0.0378 µM; in [10], 0.0706 µM. Besides, the TGI is 0.0884 µM in assay [1]; 41.8 µM in [2]; over 100 µM in assay [3]; over 100 µM in assay [4]; over 100 µM in [5]; over 100 µM in [6]. The TGI is 15.9 µM in [7], over 100 µM in assay [8], over 100 µM in assay [9] and over 100 µM in assay [10].

Turning to `CC1CC(C)C2=NOS3=C2C1=NO3` (stereo not given), the TGI in assay [1], in [2], in [3], in assay [4], in assay [5] and in [6] was over 100 µM in each case. In addition, the TGI in assay [7], in assay [8], in assay [9] and in assay [10] was over 100 µM throughout.

Regarding `CC(=O)NC(CCCCN(Cc1ccccc1)C(=O)N(CCCl)N=O)C(=O)NCc1ccccc1` (stereo not given), the TGI in assay [1] was 63.7 µM; in [2], 53.8 µM; in [3], over 100 µM; in assay [4], over 62.6 µM; in assay [5], 63.8 µM; in assay [6], 43.2 µM. The TGI in [7] was over 72.4 µM; in assay [8] it was over 84.3 µM; in [9] it was over 89.4 µM; in assay [10], over 87.3 µM.

As to `O=C1C(=O)N(c2cccc(C(F)(F)F)c2)C(=O)C(=O)C1c1nc2ccccc2s1`, the TGI was over 100 µM in assay [1]; over 100 µM in assay [2]; over 100 µM in assay [3]; over 100 µM in assay [4]; over 100 µM in [5]; over 53.8 µM in assay [6]. Also, the TGI in assay [7] is over 100 µM; in [8], 65.1 µM; in [9] it was over 100 µM; in assay [10], over 100 µM.

On to `CC(=O)O/N=C(Cl)/C(Cl)=N/OC(C)=O`, for which the TGI in [1], in assay [2], in [3], in assay [4], in [5] and in assay [6] was over 100 µM in each case. In addition, the TGI in assay [7], in [8], in [9] and in assay [10] was over 100 µM in each case.

`COc1cc2c(cc1OC)c1c(OC)c(OC)cc3c1c1c2sc(=S)n1CC3`: the TGI is over 100 µM in assay [1]; 34.6 µM in assay [2]; over 100 µM in [3]; over 100 µM in assay [4]; over 100 µM in assay [5]; over 100 µM in assay [6]. Besides, the TGI in assay [7], in [8], in assay [9] and in [10] was over 100 µM throughout.

For the compound `COc1cc(/C=C\c2ccc(OC(C)=O)cc2)cc(OC)c1OC`, the TGI is over 100 µM in [1]; over 100 µM in assay [2]; over 100 µM in assay [3]; over 100 µM in [4]; 6.93 µM in assay [5]; over 100 µM in [6]. The TGI in assay [7], in assay [8], in assay [9] and in assay [10] was over 100 µM throughout.

Regarding `O=C(Cn1c(C(=O)c2ccccc2)nc2ccccc21)c1ccc(F)cc1`, the GI50 in assay [1] was 2.48 µM; in assay [2], 5.92 µM; in [3] it was 24.6 µM; in assay [4], 3.28 µM; in assay [5], 10.5 µM; in assay [6] it was 37.4 µM. Besides, the GI50 was 3.51 µM in assay [7], 5.75 µM in [8], 2.86 µM in assay [9] and over 100 µM in [10]. Also, the TGI is over 100 µM in [1]; over 62.9 µM in [2]; over 100 µM in assay [3]; over 100 µM in assay [4]; over 100 µM in [5]; over 100 µM in assay [6]. Also, the TGI in assay [7], in assay [8], in assay [9] and in assay [10] was over 100 µM each time.

As for `CCOc1c(C#N)c2c(N)ncnc2n1C1OC(CO)C(O)C1O` (stereo not given), the GI50 in assay [1] was 3.11 µM; in [2], 8.18 µM; in assay [3], 3.75 µM; in [4] it was 0.881 µM; in assay [5], 5.61 µM; in [6], 4.81 µM. For the same compound, the GI50 in assay [7] was 2.89 µM; in assay [8], 3.18 µM; in [9], 1.5 µM; in assay [10], 7.02 µM. The TGI in assay [1] was over 44.2 µM; in assay [2], 39.9 µM; in assay [3], over 57.2 µM; in [4], 3.27 µM; in assay [5], over 76 µM; in assay [6] it was over 100 µM. Also, the TGI is over 34.1 µM in assay [7], 24 µM in [8], 16.4 µM in assay [9] and over 100 µM in assay [10].
